Laboratory results as given in paper PMC11603275, “Synthesis and Antimicrobial Evaluation of New 1,2,4-Triazolo[1,5-a]pyrimidine-Based Derivatives as Dual Inhibitors of Bacterial DNA Gyrase and DHFR” (ACS Omega, 2024).
In brackets after ≈: the same amount, converted by molar mass. Read-outs that look alike come from different tables or passages of the source.

What was measured:
P. aeruginosa [1] = test: Modified disk diffusion, inhibition zone; conditions: P. aeruginosa (G-)
B. subtilis [2] = test: Modified disk diffusion, inhibition zone; conditions: B. subtilis (G+)
A. flavus [3] = test: Modified disk diffusion, inhibition zone; conditions: A. flavus (fungi)
E. coli [4] = test: Modified disk diffusion, inhibition zone; conditions: E. coli (G-)
S. aureus [5] = test: Modified disk diffusion, inhibition zone; conditions: S. aureus (G+)
C. albicans [6] = test: Modified disk diffusion, inhibition zone; conditions: C. albicans (fungi)
[7] = test system: Gram-positive and Gram-negative bacteria (B. subtilis, S. aureus, E. coli, P. aeruginosa); test: Disk diffusion, inhibition zones summarised over the tested bacterial strains; conditions: over the four tested bacterial strains
S. aureus [8] = test: MIC assay, 2-fold serial dilution in 96-well microtiter plate; type: cell-based, Staphylococcus aureus (ATCC 12600)
Description: (§1) The outcomes of this in vitro assay test align with the results of the antimicrobial sensitivity test.
(§2) Appendix A (Supplementary File) provides experimental details.
(§3) In 96-well microtiter plates and […] of fresh bacterial culture of a single McFarland unit overnight, a double serial dilution of each compound […] in sterile standard saline were prepared to every single source well. […] The plates were incubated at 37 °C overnight. As an indicator of bacterial growth, […] of p-iodonitrotetrazolium violet (INT) was added to each well and incubated at 37 °C for 30 min. […] The colorless tetrazolidium salt acts as an electron accepter and is reduced to a red colored formazan product by biological activity organisms. Where bacterial growth was inhibited, the solution in the well remained clear after incubation with INT.

S. aureus [9] = test: Minimum bactericidal concentration (MBC) assay; type: cell-based, Staphylococcus aureus; conditions: Staphylococcus aureus, read-out: MBC
Text: (§4) The MBC differs from the MIC. […] Unlike the MBC, which leads to mortality, the MIC hinders bacterial growth without causing death.[41] The common expression for MBC is MBC50, signifying the antibiotic concentration that eliminates 50% of the initial bacterial population.[42]

A. flavus [10] = test: Antifungal MIC assay, 2-fold serial dilution; type: cell-based, Aspergillus flavus; conditions: Aspergillus flavus, read-out: MIC
C. albicans [11] = test: Antifungal MIC assay, 2-fold serial dilution; type: cell-based, Candida albicans; conditions: Candida albicans, read-out: MIC
B. subtilis [12] = test: MIC assay, 2-fold serial dilution in 96-well microtiter plate; type: cell-based, Bacillus subtilis (ATCC 6051); conditions: Bacillus subtilis, read-out: MIC
Description: as §1, §2, §3

P. aeruginosa [13] = test: Minimum bactericidal concentration (MBC) assay; type: cell-based, Pseudomonas aeuroginosa
Text: as §4

P. aeruginosa [14] = test: MIC assay, 2-fold serial dilution in 96-well microtiter plate; type: cell-based, Pseudomonas aeuroginosa (ATCC 10145)
Description: as §1, §2, §3

B. subtilis [15] = test: Minimum bactericidal concentration (MBC) assay; type: cell-based, Bacillus subtilis; conditions: Bacillus subtilis, read-out: MBC
Text: as §4

E. coli DNA gyrase = biological target: T1, E. coli DNA gyrase (Escherichia coli, UniProt P0AES6); test: DNA gyrase inhibitory (supercoiling) assay; type: biochemical
T1 construct: purchased Inspiralis
Description: (§5) IC50 values were determined using seven different inhibitor concentrations and then calculated using the GraphPad Prism 6.0 software.
All the final compounds were tested for E. coli DNA gyrase inhibitory activity in a supercoiling assay. Activities were determined on streptavidin-coated 96-well microtiter plates from Thermo scientific Pierce. […] After washing off the unbound oligonucleotide, the enzyme test was performed. […] After that, the TF buffer (50 mM NaOAc with pH 5.0, 50 mM NaCl and 50 mM MgCl2) was added to terminate the enzymatic reaction. After additional incubation for 30 min at rt, during which biotin-oligonucleotide-plasmid triplex was formed, the unbound plasmid was washed off using TF buffer and SybrGOLD in T10 buffer (10 mM Tris HCl with pH 8.0 and 1 mM EDTA) was added. […] Initial screening was done at 100 or 10 μM concentration of inhibitors. […] GraphPad Prism software was used to calculate the IC50 values. The result is given as the average value of three independent measurements.

E. coli [16] = test: MIC assay, 2-fold serial dilution in 96-well microtiter plate; type: cell-based, Escherichia coli (ATCC 11775); conditions: Escherichia coli, read-out: MIC
Description: as §1, §2, §3

E. coli [17] = test: Minimum bactericidal concentration (MBC) assay; type: cell-based, Escherichia coli
Text: as §4

DHFR E. coli = biological target: T2, DHFR E. coli (Escherichia coli, UniProt P0ABQ4); test: DHFR inhibitory assay; type: biochemical
T2 construct: purchased Inspiralis
Description: as §5

[18] = Staphylococcus aureus, read-out: MIC
[19] = Pseudomonas aeruginosa, read-out: MBC
[20] = Pseudomonas aeruginosa, read-out: MIC
[21] = Escherichia coli, read-out: MBC

T2 sequence (P0ABQ4 whole entry): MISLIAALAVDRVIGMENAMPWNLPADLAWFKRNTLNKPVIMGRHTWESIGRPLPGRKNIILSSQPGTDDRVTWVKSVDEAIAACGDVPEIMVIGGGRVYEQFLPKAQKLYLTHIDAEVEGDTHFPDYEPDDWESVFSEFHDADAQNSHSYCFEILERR

SMILES	Inhibition Zone (IZ) Diameter (P. aeruginosa [1]) [mm/mL]	Inhibition Zone (IZ) Diameter (B. subtilis [2]) [mm/mL]	Inhibition Zone (IZ) Diameter (A. flavus [3]) [mm/mL]	Inhibition Zone (IZ) Diameter (E. coli [4]) [mm/mL]	Inhibition Zone (IZ) Diameter (S. aureus [5])	melting point [°C]	Inhibition Zone (IZ) Diameter (C. albicans [6]) [mm]	other results
Cc1ccc(-c2cc(-c3ccccc3)nc3nc(-c4ccccc4)nn23)cc1 [Compound 9c, 2,5-Diphenyl-7-p-tolyl-1,2,4-triazolo[1,5-a]pyrimidine]	13	11	7	13	15	218 to 220	10	
COc1ccc(-c2cc(-c3ccccc3)n3nc(-c4ccccc4)nc3n2)cc1 [Compound 9m, 5-(4-Methoxyphenyl)-2,7-diphenyl-1,2,4-triazolo[1,5-a]pyrimidine]	30	31	20	30	32	222 to 224	23	Inhibition Zone (IZ) Diameter [7]: approximately 30 mm
Cc1ccc(-c2cc(-c3ccc(C)cc3)n3nc(-c4ccccc4)nc3n2)cc1 [Compound 9k, 2-Phenyl-5,7-di-p-tolyl-1,2,4-triazolo[1,5-a]pyrimidine]	30	32	22	30	32	224 to 226	25	Inhibition Zone (IZ) Diameter [7]: 30–32 mm
COc1ccc(-c2cc(-c3ccc(C)cc3)nc3nc(-c4ccccc4)nn23)cc1 [Compound 9l, 7-(4-Methoxyphenyl)-2-phenyl-5-p-tolyl-1,2,4-triazolo[1,5-a]pyrimidine]	22	23	15	23	26	222 to 224	17	
Clc1ccc(-c2cc(-c3ccc(Cl)cc3)n3nc(-c4ccccc4)nc3n2)cc1 [Compound 9f, 5,7-Bis(4-Chlorophenyl)-2-phenyl-1,2,4-triazolo[1,5-a]pyrimidine]	18	14	8	15	15	202 to 204	12	
Clc1ccc(-c2cc(-c3ccccc3)n3nc(-c4ccccc4)nc3n2)cc1 [Compound 9e, 5-(4-Chlorophenyl)-2,7-diphenyl-1,2,4-triazolo[1,5-a]pyrimidine]	11	10	5	12	12	260 to 262	8	
COc1ccc(-c2cc(-c3ccc(OC)cc3)n3nc(-c4ccccc4)nc3n2)cc1 [Compound 9p, 5,7-Bis(4-methoxyphenyl)-2-phenyl-1,2,4-triazolo[1,5-a]pyrimidine]	38	38	30	37	39		31	MIC (S. aureus [8]): 0.037 ± 0.002 µM (≈ 0.0151 µg/mL); MIC (S. aureus [8]; [18]): 0.069 µM (≈ 0.0282 µg/mL); MBC (S. aureus [9]): 0.069 ± 0.003 µM (≈ 0.0282 µg/mL); MIC (A. flavus [10]): 19.9 ± 1 µM (≈ 8.13 µg/mL); MIC (C. albicans [11]): 23.7 ± 1 µM (≈ 9.68 µg/mL); Inhibition Zone (IZ) Diameter [7]: approximately 38 mm; MIC (B. subtilis [12]): 0.035 ± 0.002 µM (≈ 0.0143 µg/mL); MBC (P. aeruginosa [13]): 0.098 ± 0.006 µM (≈ 0.04 µg/mL); MBC (P. aeruginosa [13]; [19]): 0.098 µM (≈ 0.04 µg/mL); MIC (P. aeruginosa [14]): 0.068 ± 0.005 µM (≈ 0.0278 µg/mL); MIC (P. aeruginosa [14]; [20]): 0.068 µM (≈ 0.0278 µg/mL); MBC (B. subtilis [15]): 0.052 ± 0.003 µM (≈ 0.0212 µg/mL); IC50 (E. coli DNA gyrase): 0.205 ± 0.013 µM; MIC (E. coli [16]): 0.069 ± 0.004 µM (≈ 0.0282 µg/mL); MBC (E. coli [17]): 0.097 ± 0.006 µM (≈ 0.0396 µg/mL); MBC (E. coli [17]; [21]): 0.097 µM (≈ 0.0396 µg/mL); IC50 (DHFR E. coli): 5.4 ± 0.2 µM
COc1ccc(-c2cc(-c3ccc(Cl)cc3)nc3nc(-c4ccccc4)nn23)cc1 [Compound 9h, 5-(4-Chlorophenyl)-7-(4-methoxyphenyl)-2-phenyl-1,2,4-triazolo[1,5-a]pyrimidine]	12	9	5	11				
c1ccc(-c2cc(-c3ccccc3)n3nc(-c4ccccc4)nc3n2)cc1 [Compound 9a, 2,5,7-Triphenyl-1,2,4-triazolo[1,5-a]pyrimidine]	12	12	7	14	14	210 to 212	10	
Clc1ccc(-c2cc(-c3ccccc3)nc3nc(-c4ccccc4)nn23)cc1 [Compound 9b, 7-(4-Chlorophenyl)-2,5-diphenyl-1,2,4-triazolo[1,5-a]pyrimidine]	24	21	11	23	23	214 to 216	15	
COc1ccc(-c2cc(-c3ccccc3)nc3nc(-c4ccccc4)nn23)cc1 [Compound 9d, 7-(4-Methoxyphenyl)-2,5-diphenyl-1,2,4-triazolo[1,5-a]pyrimidine]	34	35	27	33	35		30	MIC (S. aureus [8]; [18]): 0.039 ± 0.002 µM (≈ 0.0148 µg/mL); MBC (S. aureus [9]): 0.071 ± 0.004 µM (≈ 0.0269 µg/mL); MIC (A. flavus [10]): 21.5 ± 1 µM (≈ 8.14 µg/mL); MIC (C. albicans [11]): 26.3 ± 1 µM (≈ 9.95 µg/mL); MIC (B. subtilis [12]): 0.038 ± 0.002 µM (≈ 0.0144 µg/mL); MBC (P. aeruginosa [13]; [19]): 0.109 ± 0.007 µM (≈ 0.0412 µg/mL); MIC (P. aeruginosa [14]; [20]): 0.075 ± 0.005 µM (≈ 0.0284 µg/mL); MBC (B. subtilis [15]): 0.064 ± 0.003 µM (≈ 0.0242 µg/mL); IC50 (E. coli DNA gyrase): 0.217 ± 0.013 µM; MIC (E. coli [16]): 0.073 ± 0.005 µM (≈ 0.0276 µg/mL); MBC (E. coli [17]; [21]): 0.102 ± 0.007 µM (≈ 0.0386 µg/mL); IC50 (DHFR E. coli): 5.9 ± 0.2 µM
Cc1ccc(-c2cc(-c3ccccc3)n3nc(-c4ccccc4)nc3n2)cc1 [Compound 9i, 2,7-Diphenyl-5-p-tolyl-1,2,4-triazolo[1,5-a]pyrimidine]	29	28	17	30				
Cc1ccc(-c2cc(-c3ccc(Cl)cc3)n3nc(-c4ccccc4)nc3n2)cc1 [Compound 9j, 7-(4-Chlorophenyl)-2-phenyl-5-p-tolyl-1,2,4-triazolo[1,5-a]-pyrimidine]	20	20	10	20				
Cc1ccc(-c2cc(-c3ccc(Cl)cc3)nc3nc(-c4ccccc4)nn23)cc1 [Compound 9g, 5-(4-Chlorophenyl)-2-phenyl-7-p-tolyl-1,2,4-triazolo[1,5-a]pyrimidine]	18	19	9.0	20	20	248 to 250	11	Inhibition Zone (IZ) Diameter [7]: 18–20 mm
